The values below come from ChEMBL document CHEMBL5727538, “Pyridazinones as PARP7 inhibitors” (2020).

Where only a bound is given, the exact number is not on record here.

The target of the assay is T1, Protein mono-ADP-ribosyltransferase TIPARP (Homo sapiens, UniProt Q7Z3E1).
T1 sequence (Q7Z3E1 whole entry): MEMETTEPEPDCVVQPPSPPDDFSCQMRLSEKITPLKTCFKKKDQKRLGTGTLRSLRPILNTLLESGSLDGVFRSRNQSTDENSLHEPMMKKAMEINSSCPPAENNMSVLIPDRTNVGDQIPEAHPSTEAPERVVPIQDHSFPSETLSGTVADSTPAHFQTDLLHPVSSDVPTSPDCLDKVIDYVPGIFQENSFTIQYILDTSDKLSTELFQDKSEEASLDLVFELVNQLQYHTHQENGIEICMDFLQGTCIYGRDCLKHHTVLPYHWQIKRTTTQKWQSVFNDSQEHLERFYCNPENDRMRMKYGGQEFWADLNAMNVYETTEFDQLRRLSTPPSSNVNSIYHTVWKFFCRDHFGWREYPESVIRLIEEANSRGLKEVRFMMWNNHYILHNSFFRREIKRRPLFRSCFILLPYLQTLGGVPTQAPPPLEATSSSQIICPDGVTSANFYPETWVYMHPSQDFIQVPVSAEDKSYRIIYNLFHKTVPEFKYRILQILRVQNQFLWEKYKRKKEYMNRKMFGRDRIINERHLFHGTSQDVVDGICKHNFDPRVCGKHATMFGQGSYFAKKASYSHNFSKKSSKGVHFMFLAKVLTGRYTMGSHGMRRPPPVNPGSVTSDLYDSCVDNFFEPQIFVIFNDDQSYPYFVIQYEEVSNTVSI
As to the kind of experiment: Enzymatic Assay for Inhibition of PARP7: Displacement of Probe A, a biotinylated probe binding to the TIPARP active site, was measured using a time-resolved fluorescence energy transfer (TR-FRET) assay. 20 nL of a dose response curve of each test compound was spotted in black 384-well polystyrene proxiplates (Perkin Elmer) using a Mosquito (TTP Labtech). Reactions were performed in a 8 μL volume by adding 6 μL of TIPARP and Probe A in assay buffer (20 mM HEPES pH=8, 100 mM NaCl, 0.1% bovine serum albumin, 2 mM DTT and 0.002% Tween20), incubating with test compound at 25° C. for 30 min, then adding 2 μL of ULight-anti 6×His and LANCE Eu-W1024 labeled streptavidin (Perkin Elmer). The final concentrations of TIPARP and Probe A were 6 nM and 2 nM, respectively. The final concentration of ULight-anti 6xHis and LANCE Eu-W1024 labeled streptavidin were 4 nM and 0.25 nM, respectively. Reactions were incubated at 25° C. for an additional 30 min, then read on an Envision platereader equipped with a LANCE/DELFIA top mirror (Perkin Elmer) using excitation of 320 nm and emission of 615 nm and […] with a 90 μs delay. The ratio of the 665/615 nm emission were calculated for each well to determine the amount of complex of TIPARP and Probe A in each well. […] The Hill Coefficient is normally allowed to float but may also be fixed at 1 in a 3-parameter fit. Y is the % inhibition and x is the compound concentration.
For the compound `N#Cc1ccc(N2CCN(C(=O)CC3COCCN3c3cn[nH]c(=O)c3C(F)(F)F)CC2)nc1` (stereo not drawn), the half-inhibitory concentration (IC50) (usually the midpoint of a concentration-inhibition curve) was under 100 nM. For the compound `N#Cc1ccc(N2CCN(C(=O)[C@H]3C[C@H](OC[C@@H]4CCCN4c4cn[nH]c(=O)c4C(F)(F)F)C3)CC2)nc1`, the IC50 is under 100 nM. `C[C@@H](COCCC(=O)N1CCC(Nc2ncc(C(F)(F)F)s2)C1)Nc1cn[nH]c(=O)c1C(F)(F)F` (stereo partly drawn): the concentration for half-maximal inhibition (IC50) is under 100 nM. As for `O=C(CCOC[C@H](Nc1cn[nH]c(=O)c1C(F)(F)F)C1CCNCC1)N1CCN(c2ncc(C(F)(F)F)cn2)CC1`, the figure is under 100 nM. With `O=C(COC[C@@H]1CCCN1c1cn[nH]c(=O)c1C(F)(F)F)N[C@H]1CC[C@@H](Nc2ccccn2)CC1`, the concentration for half-maximal inhibition (IC50) was 100 to 1000 nM. As for `N#Cc1ccc(N2CCN(C(=O)CCOCCOC3CN(c4cn[nH]c(=O)c4C(F)(F)F)C3)CC2)nc1`, the concentration for half-maximal inhibition (IC50) was over 1000 nM.

On to `O=c1[nH]ncc(N2Cc3cccc(O)c3C2)c1C(F)(F)F`, for which the IC50 is under 100 nM. The value for `O=C(CCOC[C@@H]1CCCN1c1cn[nH]c(=O)c1C(F)(F)F)N[C@H]1CC[C@H](Nc2ccccn2)CC1` was 100 to 1000 nM.
